Assays:
Format in all cases: in vivo, human
[1] = system: healthy middle-aged and older adults; assay: Resting brachial artery blood pressure
Experimental: Resting brachial artery blood pressure and heart rate were measured in the seated position after 5 minutes of rest in a quiet examination room using a semi-automated blood pressure device (DYNAMAP™ XL, Johnson & Johnson, Arlington, Tex., USA). Measurements were made multiple times from the non-dominant arm, with 2 minutes of quiet rest between recordings. Repeat measurements were made until 3 blood pressure values were obtained that were within 5 mmHg of one another. These values were then averaged to determine resting systolic and diastolic blood pressure, pulse pressure, mean arterial pressure, and resting heart rate. Baseline blood pressure values were obtained using the above-described protocol on two separate testing days prior to the initiation of the first intervention arm and were averaged to determine baseline blood pressure status (i.e., normotensive vs. pre-hypertensive) for subsequent analyses.
To determine if this effect was greater in subjects with elevated baseline blood pressure, subjects were characterized as either normotensive (SBP <120 mmHg; DBP <80 mmHg) or pre-hypertensive (SBP 120-139 mmHg; DBP 80-89 mmHg) based on their average baseline blood pressure obtained on two separate days. The inventors observed a near significant interaction between treatment condition (NR vs. placebo) and blood pressure status for systolic blood pressure (FIG. 3A; P=0.07), with no effect on diastolic pressure (FIG. 3C), and […] on mean arterial pressure (FIG. 3E; P=0.08). […] Diastolic blood pressure also tended to be reduced in prehypertensive individuals; however this effect was lower in magnitude (3 mmHg reduction) and approached significance (FIG. 3D; P=0.09).

[2] = system: healthy middle-aged and older adults; assay: Treatment-emergent adverse events and tolerability, randomized double blinded placebo controlled crossover study
Experimental: The inventors hypothesized that oral supplementation with the nicotinamide adenine dinucleotide (NAD+) increasing compound, nicotinamide riboside (NR) would reduce blood pressure (BP) and aortic pulse wave velocity (aPWV, a measure of large elastic artery stiffness). This hypothesis was tested in healthy middle-aged and older human adults (65±2 yrs, n=24) in a randomized, placebo-controlled crossover study.
(§1) Sixty subjects were consented for this study. This study was conducted in the Integrative Physiology of Aging Laboratory and the Clinical and Translational Research Center (CTRC) at the University of Colorado Boulder. All blood assays were performed at either Boulder Community Hospital or the University of Colorado Denver Anschutz Medical Campus CTRC Core Laboratory. All testing sessions were performed after an overnight fast and 24-hour abstention from exercise and alcohol consumption. All subjects refrained from all prescription medications for 24 hours and over the counter medications for 48 hours prior to all testing visits.
A randomized, double blinded, placebo controlled crossover design was implemented for this study. Healthy middle-aged and older (55-79 years) adult men and postmenopausal women were recruited from the Boulder/Denver metro area. Subjects were nonsmokers and free of clinical diseases as assessed by a medical history, physical examination, blood chemistry and resting and exercise ECG. […] Four subjects dropped out of the study prior to randomization due to time commitment and one subject was unresponsive to scheduling requests resulting in a total of 30 remaining subjects for randomization. Of these, fifteen subjects were randomized to Group A, which received placebo pills during the first 6 weeks of the study before crossing over to receive NR pills for 6 weeks. The remaining fifteen subjects were randomized to Group B, which received NR pills first followed by placebo. One subject was excluded from Group A due to a change in medication status that no longer met inclusion criteria and two subjects in Group A dropped out of the study due to a complaint of side effects. Two subjects were excluded from Group B due to a change in health or medication status that no longer met inclusion criteria and one subject dropped out of Group B due to a broken ankle, resulting in a total of 24 subjects who completed the trial (FIG. 1). These subjects were well matched by age, sex and baseline characteristics between groups and all baseline values were within normal clinical ranges, as shown in Table 1:
14 treatment-emergent adverse events (AEs) were reported by 7 of the 30 participants enrolled in the study.

[3] = system: healthy middle-aged and older adults; assay: Carotid-femoral pulse wave velocity (large elastic artery stiffness)
Experimental: Carotid-femoral PWV, the gold-standard assessment of elastic artery stiffness in humans, was measured using transcutaneous tonometry. Pressure waveforms were recorded simultaneously from the carotid and femoral arteries using two identical non-invasive pressure tonometers (SPT-301, Millar Instruments, Houston, Tex., USA). The transit distance was calculated as the distance between the carotid and femoral recording sites, after subtracting the distance between the carotid recording site and the sternal notch. PWV was calculated as the transit distance divided by the time delay between the foot of each pressure wave.

endothelin-1 (ET-1) = assay: Circulating endothelin-1 concentration; settings: compared with placebo
Description: To gain potential insight into the underlying mechanisms by which nicotinamide riboside lowers blood pressure, we assessed plasma concentrations of endothelin-1 (ET-1), a potent vasoconstrictor that is released by the vascular endothelium to regulate vascular smooth muscle tone. […] Thus, nicotinamide riboside may lower blood pressure and arterial stiffness by suppressing ET-1-mediated vasoconstriction.

Total lipid panel = assay: Total lipid panel
Experimental: as §1
Clinical laboratory values were obtained from blood samples collected at the end of each intervention phase in 21 subjects. Complete blood work was not obtained in three subjects due to a failed catheterization during at least one of the testing phases.

[4] = all subjects, NR condition compared with placebo, P<0.05
[5] = pre-hypertensive individuals, P<0.01
[6] = end of 6-week phase, mean ± SEM, 21 subjects

NC(=O)c1ccc[n+]([C@@H]2O[C@H](CO)[C@@H](O)[C@H]2O)c1 [NR, nicotinamide riboside]
Mean arterial blood pressure ([1]; all subjects): moderately lowered
Resting diastolic blood pressure [1, 4]: significantly reduced
Resting systolic blood pressure [1, 4]: significantly reduced
Pre-hypertension, hypertension, and arterial stiffness ([1]; human subjects, 500 mg twice daily, within 6 weeks or less): significant improvements
Blood pressure ([1]; normotensive individuals): no effect
Lowering of systolic blood pressure compared with placebo [1, 5]: 8 mmHg
Mean (arterial) pressure [1, 5]: significant reduction
Reduction of diastolic blood pressure ([1]; prehypertensive individuals, P=0.09): 3 mmHg
Drowsiness, # events ([2]; NR condition, 6 weeks oral): 0 (0)
Drowsiness, # events/patient ([2]; NR condition, 6 weeks oral): 0 (0)
Fainting, # events ([2]; NR condition, 6 weeks oral): 0 (0)
Fainting, # events/patient ([2]; NR condition, 6 weeks oral): 0 (0)
Flushing/Hot flashes, # events ([2]; NR condition, 6 weeks oral): 1 (1)
Flushing/Hot flashes, # events/patient ([2]; NR condition, 6 weeks oral): 1 (1)
Headache, # events ([2]; NR condition, 6 weeks oral): 0 (0)
Headache, # events/patient ([2]; NR condition, 6 weeks oral): 0 (0)
Increased Bruising, # events ([2]; NR condition, 6 weeks oral): 1 (1)
Increased Bruising, # events/patient ([2]; NR condition, 6 weeks oral): 1 (1)
Leg cramps, # events ([2]; NR condition, 6 weeks oral): 1 (1)
Leg cramps, # events/patient ([2]; NR condition, 6 weeks oral): 1 (1)
Nausea, # events ([2]; NR condition, 6 weeks oral): 1 (1)
Nausea, # events/patient ([2]; NR condition, 6 weeks oral): 1 (1)
Skin Rash, # events ([2]; NR condition, 6 weeks oral): 1 (1)
Skin Rash, # events/patient ([2]; NR condition, 6 weeks oral): 1 (1)
Severity of adverse events ([2]; all AEs): mild in severity
Tolerability ([2]; at the dose tested): well tolerated
Severe adverse events ([2]; during the study): No severe adverse events occurred
Association of flushing with supplementation ([2]; flushing reported in both placebo and NR conditions): unlikely associated with NR supplementation
PWV lowering by baseline blood pressure status ([3]; all subjects, regardless of baseline blood pressure status): lowered PWV by a similar degree in all subjects
Large elastic artery stiffness, aortic pulse wave velocity (PWV) ([3]; following NR supplementation compared with placebo): significantly reduced
Serum ET-1 concentrations (endothelin-1 (ET-1)): lowers serum ET-1 concentrations
Difference between treatment conditions for blood lipid profiles (Total lipid panel; NR vs placebo): No meaningful differences
HDL-C (Total lipid panel; [6]): 60 ± 5 mg/dL
LDL-C (Total lipid panel; [6]): 94 ± 5 mg/dL
N-HDL-C (Total lipid panel; [6]): 111 ± 6 mg/dL
Total cholesterol (Total lipid panel; [6]): 171 ± 6 mg/dL
Triglycerides (Total lipid panel; [6]): 90 ± 14 mg/dL
VLDL-C (Total lipid panel; [6]): 17 ± 3 mg/dL
